Literature values, collected in patent US20130252988A1, “COMPOSITIONS AND METHODS FOR TREATING MYELOFIBROSIS” (TARGEGEN, INC., priority 2010, published 2013).

Details: Kantarjian H M et al., Blood 110:3540-3546, 2007; cited from earlier work

In the case of `Cc1cn(-c2cc(NC(=O)c3ccc(C)c(Nc4nccc(-c5cccnc5)n4)c3)cc(C(F)(F)F)c2)cn1` [nilotinib], the “Asymptomatic hyperamylasemia, sometimes with hyperlipasemia, as toxicity” value is listed as “observed”.
